ChEMBL document CHEMBL4837201, “Increased antibacterial properties of indoline-derived phenolic Mannich bases” (Eur J Med Chem, 2021)
In brackets after ≈: the same amount, converted by molar mass.

Experiments:
[1] = Toxicity in Saccharomyces cerevisiae ATCC 2601 assessed as reduction in cell viability measured after 24 hrs by microdilution method; details: for IC50 at 24 h: Saccharomyces cerevisiae, Saccharomyces cerevisiae ATCC 2601 cells
[2] = test system: Staphylococcus aureus; experiment: Antibacterial activity against Staphylococcus aureus assessed as inhibition of bacterial growth incubated for 16 to 24 hrs by broth microdilution method; assay type: functional; details: time 16-24 hrs
[3] = test system: Staphylococcus aureus; experiment: Antibacterial activity against methicillin-sensitive Staphylococcus aureus ATCC 25923 assessed as inhibition of bacterial growth incubated for 16 to 24 hrs by broth microdilution method; assay type: functional; details: time 16-24 hrs
[4] = test system: Staphylococcus aureus; experiment: Antibacterial activity against Staphylococcus aureus ATCC 6538 assessed as inhibition of bacterial growth incubated for 16 to 24 hrs by broth microdilution method; assay type: functional; details: time 16-24 hrs
[5] = test system: Staphylococcus aureus; experiment: Antibacterial activity against methicillin-resistant Staphylococcus aureus CIP106760 assessed as inhibition of bacterial growth incubated for 16 to 24 hrs by broth microdilution method; assay type: functional; details: time 16-24 hrs
[6] = test system: Enterococcus faecalis; experiment: Antibacterial activity against Enterococcus faecalis ATCC 29212 assessed as inhibition of bacterial growth incubated for 16 to 24 hrs by broth microdilution method; assay type: functional; details: time 16-24 hrs
[7] = test system: Enterococcus faecalis; experiment: Antibacterial activity against vancomycin-resistant Enterococcus faecalis ATCC 51299 assessed as inhibition of bacterial growth incubated for 16 to 24 hrs by broth microdilution method; assay type: functional; details: time 16-24 hrs
[8] = test system: Staphylococcus epidermidis; experiment: Antibacterial activity against Staphylococcus epidermidis ATCC 12228 assessed as inhibition of bacterial growth incubated for 16 to 24 hrs by broth microdilution method; assay type: functional; details: time 16-24 hrs
[9] = test system: Bacillus subtilis; experiment: Antibacterial activity against Bacillus subtilis ATCC 6633 assessed as inhibition of bacterial growth incubated for 16 to 24 hrs by broth microdilution method; assay type: functional; details: time 16-24 hrs
[10] = Antioxidant activity assessed as DPPH radical scavenging activity at 10 ug/ml by DPPH assay relative to control; assay type: functional; details: dose 10.0 µg/ml
[11] = Cytotoxicity against human HaCaT cells assessed as cell viability at 50 uM after 24 hrs by MTT assay; assay type: cell-based; details: HaCaT cells, read-out: Activity
[12] = test system: Staphylococcus epidermidis; experiment: Antibacterial activity against Staphylococcus epidermidis assessed as inhibition of bacterial growth incubated for 16 to 24 hrs by broth microdilution method; assay type: functional; details: time 16-24 hrs
[13] = test system: Listeria monocytogenes; experiment: Antibacterial activity against Listeria monocytogenes assessed as inhibition of bacterial growth incubated for 16 to 24 hrs by broth microdilution method; assay type: functional; details: time 16-24 hrs
[14] = test system: Enterococcus faecium; experiment: Antibacterial activity against Enterococcus faecium assessed as inhibition of bacterial growth incubated for 16 to 24 hrs by broth microdilution method; assay type: functional; details: time 16-24 hrs
[15] = test system: Enterococcus faecalis; experiment: Antibacterial activity against Enterococcus faecalis assessed as inhibition of bacterial growth incubated for 16 to 24 hrs by broth microdilution method; assay type: functional; details: time 16-24 hrs
[16] = test system: MRC5; experiment: Cytotoxicity against human MRC5 cells assessed as reduction in cell viability measured after 24 hrs by MTT assay; assay type: cell-based; details: MRC5, 24 h
[17] = test system: HaCaT; experiment: Cytotoxicity against human HaCaT cells assessed as reduction in cell viability at 50 uM after 24 hrs by MTT assay; assay type: cell-based
[18] = Toxicity in Artemia salina assessed as mortality at 10 ug/ml measured after 24 hrs; details: at 10 µg/mL

Row | Compound | MBC [3] | MIC [3] | MBC [4] | MIC [4] | MBC [5] | MIC [5] | MBC [6] | MIC [6] | MBC [7] | MIC [7] | MBC [8] | MIC [8] | MBC [9] | MIC [9] | Activity [10] | IC50 at 24 h [1] | also measured
1 | NYSTATIN | – | – | – | – | – | – | – | – | – | – | – | – | – | – | – | – | IC50 [1]: 3.31 µM
2 | Cc1ccc(C(c2cc([N+](=O)[O-])ccc2O)N2CCc3cc([N+](=O)[O-])ccc32)cc1 (stereo not drawn) | 38.6 µM (≈ 15.6 µg/mL) | 1.2 µM (≈ 0.486 µg/mL) | 77.1 µM (≈ 31.3 µg/mL) | 19.3 µM (≈ 7.82 µg/mL) | 4.82 µM (≈ 1.95 µg/mL) | 1.2 µM (≈ 0.486 µg/mL) | 9.64 µM (≈ 3.91 µg/mL) | 1.2 µM (≈ 0.486 µg/mL) | 154 µM (≈ 62.4 µg/mL) | 2.41 µM (≈ 0.977 µg/mL) | 37.7 µM (≈ 15.3 µg/mL) | 18.9 µM (≈ 7.66 µg/mL) | 37.7 µM (≈ 15.3 µg/mL) | 18.9 µM (≈ 7.66 µg/mL) | 8% | > 100 µM | MIC [2]: 9.64 µM (≈ 3.91 µg/mL); viability at 24 h, 50 µM [11]: 94%; MIC [12]: 9.64 µM (≈ 3.91 µg/mL); MIC [13]: 9.64 µM (≈ 3.91 µg/mL); MIC [14]: 9.64 µM (≈ 3.91 µg/mL); MIC [15]: 19.3 µM (≈ 7.81 µg/mL)
3 | Cc1ccc(C(c2cc([N+](=O)[O-])ccc2O)N2CCc3cc(O)ccc32)cc1 (stereo not drawn) | 542 µM (≈ 204 µg/mL) | 67.7 µM (≈ 25.5 µg/mL) | 332 µM (≈ 125 µg/mL) | 166 µM (≈ 62.6 µg/mL) | 108 µM (≈ 40.7 µg/mL) | 67.7 µM (≈ 25.5 µg/mL) | 108 µM (≈ 40.7 µg/mL) | 135 µM (≈ 50.8 µg/mL) | 108 µM (≈ 40.7 µg/mL) | 135 µM (≈ 50.8 µg/mL) | 302 µM (≈ 114 µg/mL) | 37.8 µM (≈ 14.2 µg/mL) | > 9.43 µM | 2.4 µM (≈ 0.903 µg/mL) | > 80% | – | –
4 | O=[N+]([O-])c1ccc2c(c1)CCN2C(c1ccc(C(F)(F)F)cc1)c1cc([N+](=O)[O-])ccc1O (stereo not drawn) | 35.6 µM (≈ 16.4 µg/mL) | 2.22 µM (≈ 1.02 µg/mL) | – | – | 1.11 µM (≈ 0.51 µg/mL) | 1.11 µM (≈ 0.51 µg/mL) | 8.89 µM (≈ 4.08 µg/mL) | 1.11 µM (≈ 0.51 µg/mL) | 142 µM (≈ 65.2 µg/mL) | 4.45 µM (≈ 2.04 µg/mL) | 2.36 µM (≈ 1.08 µg/mL) | < 1.18 µM | 18.9 µM (≈ 8.68 µg/mL) | 9.43 µM (≈ 4.33 µg/mL) | – | 292 µM | IC50 [16]: 5.8 µM; Activity [17]: Toxic
5 | COc1ccc2c(c1)CCN2C(c1ccc(C)cc1)c1cc([N+](=O)[O-])ccc1O (stereo not drawn) | 160 µM (≈ 62.5 µg/mL) | 20 µM (≈ 7.81 µg/mL) | 80 µM (≈ 31.2 µg/mL) | 20 µM (≈ 7.81 µg/mL) | 40 µM (≈ 15.6 µg/mL) | 10 µM (≈ 3.9 µg/mL) | 160 µM (≈ 62.5 µg/mL) | 10 µM (≈ 3.9 µg/mL) | 160 µM (≈ 62.5 µg/mL) | 20 µM (≈ 7.81 µg/mL) | 4.71 µM (≈ 1.84 µg/mL) | < 1.18 µM | 4.71 µM (≈ 1.84 µg/mL) | < 1.18 µM | – | – | –
6 | Cc1ccccc1C(c1cc([N+](=O)[O-])ccc1O)N1CCc2cc([N+](=O)[O-])ccc21 (stereo not drawn) | 38.6 µM (≈ 15.6 µg/mL) | 1.2 µM (≈ 0.486 µg/mL) | 9.64 µM (≈ 3.91 µg/mL) | 2.41 µM (≈ 0.977 µg/mL) | 4.82 µM (≈ 1.95 µg/mL) | 1.2 µM (≈ 0.486 µg/mL) | 9.64 µM (≈ 3.91 µg/mL) | 1.2 µM (≈ 0.486 µg/mL) | 154 µM (≈ 62.4 µg/mL) | 2.41 µM (≈ 0.977 µg/mL) | 4.71 µM (≈ 1.91 µg/mL) | < 1.18 µM | 2.36 µM (≈ 0.957 µg/mL) | < 1.18 µM | – | 121 µM | mortality at 24 h, 10 ug/ml [18]: 3%
7 | Cc1ccc(C(c2cc([N+](=O)[O-])ccc2O)N2CCc3cc(Cl)ccc32)cc1 (stereo not drawn) | 36.8 µM (≈ 14.5 µg/mL) | 2.3 µM (≈ 0.908 µg/mL) | < 158 µM | 19.8 µM (≈ 7.82 µg/mL) | 4.59 µM (≈ 1.81 µg/mL) | 1.15 µM (≈ 0.454 µg/mL) | 9.19 µM (≈ 3.63 µg/mL) | 1.15 µM (≈ 0.454 µg/mL) | 9.19 µM (≈ 3.63 µg/mL) | 2.3 µM (≈ 0.908 µg/mL) | 37.7 µM (≈ 14.9 µg/mL) | 75.4 µM (≈ 29.8 µg/mL) | 151 µM (≈ 59.6 µg/mL) | 37.7 µM (≈ 14.9 µg/mL) | > 80% | – | –
8 | Cc1ccc(C(c2cc([N+](=O)[O-])ccc2O)N2CCc3c(C#N)cccc32)cc1 (stereo not drawn) | 85.8 µM (≈ 33.1 µg/mL) | 10.7 µM (≈ 4.12 µg/mL) | 40.5 µM (≈ 15.6 µg/mL) | 20.3 µM (≈ 7.82 µg/mL) | 21.4 µM (≈ 8.25 µg/mL) | 2.68 µM (≈ 1.03 µg/mL) | 42.9 µM (≈ 16.5 µg/mL) | 2.68 µM (≈ 1.03 µg/mL) | 172 µM (≈ 66.3 µg/mL) | 5.36 µM (≈ 2.07 µg/mL) | 302 µM (≈ 116 µg/mL) | 37.8 µM (≈ 14.6 µg/mL) | 9.43 µM (≈ 3.63 µg/mL) | 4.71 µM (≈ 1.82 µg/mL) | 19% | – | –
